What was measured:
X-αR/βC = target: T1, X-αR/βC (Bos taurus, UniProt Q00194, A200G/A344S/A378F/A555M/A612E/C169F/D157S/D193E/D538A/D588Q/D604M/DEL101-144/DEL91-95/E147F/E148K/E189Q/E196F/E230D/E231L/F201L/F214C/F374V/G160D/G591A/G605N/I156V/I181L/I182V/I235R/I530V/I609V/I611A/INS98[…]/K146T/K150R/K151W/K237N/K239I/K346C/K506R/K521Q/K551Q/K564R/K590Q/K598R/L195F/L199V/L210I/L351F/L583V/L593M/L606K/M175L/M213T/M592V/M602L/N161D/N165Y/N613A/P158Q/P173A/Q494R/Q599E/Q97T/R232A/R345F/R369K/R512K/S192D/S205C/S240R/S350C/S371E/S537T/S540G/T162I/T171A/T179I/T217L/T364M/T584A/V153G/V154F/V174S/V208I/V215I/V534A/V535L/Y194N/Y197L/Y541C); assay: Macroscopic current dose–response in inside-out patches from Xenopus oocytes; format: cell-based, chimera of bovine CNG1, catfish CNG2 and rat CNG5
T1 sequence (Q00194 with tags, fused parts or gaps DEL91-95/Q97T/INS98[…]/DEL101-144/K146T/E147F/E148K/K150R/K151W/V153G/V154F/I156V/D157S/P158Q/G160D/N161D/T162I/N165Y/C169F/T171A/P173A/V174S/M175L/T179I/I181L/I182V/E189Q/S192D/D193E/Y194N/L195F/E196F/Y197L/L199V/A200G/F201L/S205C/V208I/L210I/M213T/F214C/V215I/T217L/E230D/E231L/R232A/I235R/K237N/K239I/S240R/A344S/R345F/K346C/S350C/L351F/T364M/R369K/S371E/F374V/A378F/Q494R/K506R/R512K/K521Q/I530V/V534A/V535L/S537T/D538A/S540G/Y541C/K551Q/A555M/K564R/L583V/T584A/D588Q/K590Q/G591A/M592V/L593M/K598R/Q599E/M602L/D604M/G605N/L606K/I609V/I611A/A612E/N613A): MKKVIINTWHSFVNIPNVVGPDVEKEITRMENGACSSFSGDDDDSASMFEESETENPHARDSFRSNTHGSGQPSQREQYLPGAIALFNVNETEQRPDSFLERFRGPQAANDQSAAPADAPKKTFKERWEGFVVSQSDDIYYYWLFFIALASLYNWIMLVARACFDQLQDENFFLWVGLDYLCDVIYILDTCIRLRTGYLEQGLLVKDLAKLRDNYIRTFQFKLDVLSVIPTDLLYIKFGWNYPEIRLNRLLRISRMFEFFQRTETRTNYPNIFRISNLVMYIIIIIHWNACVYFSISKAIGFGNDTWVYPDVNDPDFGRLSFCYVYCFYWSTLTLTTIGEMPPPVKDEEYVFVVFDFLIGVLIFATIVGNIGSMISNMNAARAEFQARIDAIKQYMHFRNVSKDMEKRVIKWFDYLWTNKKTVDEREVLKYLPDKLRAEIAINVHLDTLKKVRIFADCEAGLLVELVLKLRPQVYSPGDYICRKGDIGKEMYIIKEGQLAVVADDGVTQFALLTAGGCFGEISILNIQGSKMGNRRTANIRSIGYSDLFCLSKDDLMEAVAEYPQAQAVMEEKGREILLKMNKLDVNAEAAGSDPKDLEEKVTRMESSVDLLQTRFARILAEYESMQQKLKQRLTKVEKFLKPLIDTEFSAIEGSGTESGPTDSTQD

X-α homomeric channels = target: T2, X-α homomeric channels (Bos taurus, UniProt Q00194, A200G/A344S/A378F/A555M/A614G/C169F/D157S/D193E/D538A/D604Q/DEL101-144/DEL91-95/E147F/E148K/E189Q/E196F/E230D/E231L/F201L/F214C/F374V/G160D/G591K/I156V/I181L/I182V/I235R/I530V/I609E/I611V/INS98[…]/K146T/K150R/K151W/K237N/K239I/K346C/K506R/K521Q/K551Q/K564R/K590Q/K596R/K598R/L195F/L199V/L210I/L351F/L583V/M175L/M213T/M592V/M602R/N161D/N165Y/N610S/N613A/P158Q/P173A/Q494R/Q599E/Q97T/R232A/R345F/R369K/R512K/S192D/S205C/S240R/S350C/S371E/S537T/S540G/T162I/T171A/T179I/T217L/T364M/T584A/V153G/V154F/V174S/V208I/V215I/V534A/V535L/Y194N/Y197L/Y541C); assay: as above; format: cell-based, chimera of bovine CNG1 and catfish CNG2
T2 sequence (Q00194 with tags, fused parts or gaps DEL91-95/Q97T/INS98[…]/DEL101-144/K146T/E147F/E148K/K150R/K151W/V153G/V154F/I156V/D157S/P158Q/G160D/N161D/T162I/N165Y/C169F/T171A/P173A/V174S/M175L/T179I/I181L/I182V/E189Q/S192D/D193E/Y194N/L195F/E196F/Y197L/L199V/A200G/F201L/S205C/V208I/L210I/M213T/F214C/V215I/T217L/E230D/E231L/R232A/I235R/K237N/K239I/S240R/A344S/R345F/K346C/S350C/L351F/T364M/R369K/S371E/F374V/A378F/Q494R/K506R/R512K/K521Q/I530V/V534A/V535L/S537T/D538A/S540G/Y541C/K551Q/A555M/K564R/L583V/T584A/K590Q/G591K/M592V/K596R/K598R/Q599E/M602R/D604Q/I609E/N610S/I611V/N613A/A614G): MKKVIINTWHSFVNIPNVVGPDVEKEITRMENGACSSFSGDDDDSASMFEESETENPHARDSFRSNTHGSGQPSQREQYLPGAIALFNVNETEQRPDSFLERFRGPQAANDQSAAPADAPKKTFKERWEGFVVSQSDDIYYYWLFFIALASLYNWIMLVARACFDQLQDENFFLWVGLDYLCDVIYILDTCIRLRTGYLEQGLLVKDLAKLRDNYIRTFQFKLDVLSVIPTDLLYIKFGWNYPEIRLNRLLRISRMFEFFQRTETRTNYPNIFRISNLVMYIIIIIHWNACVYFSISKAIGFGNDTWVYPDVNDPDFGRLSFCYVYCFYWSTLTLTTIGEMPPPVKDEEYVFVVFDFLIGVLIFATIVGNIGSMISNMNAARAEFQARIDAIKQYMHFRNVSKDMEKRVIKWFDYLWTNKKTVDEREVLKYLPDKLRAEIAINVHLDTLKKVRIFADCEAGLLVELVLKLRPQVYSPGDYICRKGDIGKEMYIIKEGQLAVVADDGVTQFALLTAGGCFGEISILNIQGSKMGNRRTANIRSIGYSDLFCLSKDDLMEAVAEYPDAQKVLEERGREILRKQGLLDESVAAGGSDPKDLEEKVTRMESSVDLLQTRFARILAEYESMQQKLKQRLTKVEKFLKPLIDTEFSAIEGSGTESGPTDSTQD

Hill coefficient h (X-αR/βC; −100 mV, composite fit ± SEM, cGMP: excluding data >3 mM): 1.120 ± 0.044
agonist concentration at maximum of steady-state Popen dose–response curve (X-α homomeric channels): ~3 mM
Hill coefficient h (X-α homomeric channels; −100 mV, Hill fit of composite dataset, cGMP: only data ≤3 mM): 1.210 ± 0.046
Compound: Nc1nc2c(ncn2[C@@H]2O[C@@H]3COP(=O)([O-])O[C@H]3[C@H]2O)c(=O)[nH]1.[Na+] [cGMP]
Desensitization (X-αR/βC): Yes
agonist concentration above which desensitization occurs (X-αR/βC; biphasic dose–response curve): above 3 mM
Desensitization (X-α homomeric channels; agonist up to 30 mM): Yes
agonist concentration at which macroscopic current decays (desensitization) (X-α homomeric channels; steady-state level lower than in 3 mM cGMP): ≥ 10 mM

From PMC2233835 (The Journal of General Physiology, 2001)
